This passage reports ΔTm results from ChEMBL document CHEMBL1145498, “A systematic interaction map of validated kinase inhibitors with Ser/Thr kinases” (Proc Natl Acad Sci U S A, 2007).

In assay [1] the target is T1, Serine/threonine-protein kinase VRK1 (Homo sapiens) (UniProt Q99986).
T1 sequence (whole entry): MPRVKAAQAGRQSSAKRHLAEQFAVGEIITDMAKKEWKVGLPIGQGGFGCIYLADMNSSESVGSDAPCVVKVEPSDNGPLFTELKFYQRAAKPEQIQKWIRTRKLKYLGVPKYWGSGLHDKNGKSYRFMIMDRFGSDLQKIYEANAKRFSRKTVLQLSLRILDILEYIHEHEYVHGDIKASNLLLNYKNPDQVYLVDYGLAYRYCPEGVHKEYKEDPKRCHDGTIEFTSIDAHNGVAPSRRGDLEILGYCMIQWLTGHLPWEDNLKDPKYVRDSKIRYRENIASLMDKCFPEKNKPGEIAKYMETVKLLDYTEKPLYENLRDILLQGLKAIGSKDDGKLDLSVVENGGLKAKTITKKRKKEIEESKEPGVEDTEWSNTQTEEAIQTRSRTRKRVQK

Assay [2] deals with Calcium/calmodulin-dependent protein kinase kinase 2 (Homo sapiens, UniProt Q96RR4).
Assay [3] addresses Tyrosine-protein kinase JAK1 (Homo sapiens) (UniProt P23458).
The target in assay [4] is Casein kinase I isoform gamma-1 (Homo sapiens) (UniProt Q9HCP0).
The target of assay [5] is Calcium/calmodulin-dependent protein kinase type II subunit delta (Homo sapiens) (UniProt Q13557).
Chain of Calcium/calmodulin-dependent protein kinase type II subunit delta (Homo sapiens) (Q13557 whole entry): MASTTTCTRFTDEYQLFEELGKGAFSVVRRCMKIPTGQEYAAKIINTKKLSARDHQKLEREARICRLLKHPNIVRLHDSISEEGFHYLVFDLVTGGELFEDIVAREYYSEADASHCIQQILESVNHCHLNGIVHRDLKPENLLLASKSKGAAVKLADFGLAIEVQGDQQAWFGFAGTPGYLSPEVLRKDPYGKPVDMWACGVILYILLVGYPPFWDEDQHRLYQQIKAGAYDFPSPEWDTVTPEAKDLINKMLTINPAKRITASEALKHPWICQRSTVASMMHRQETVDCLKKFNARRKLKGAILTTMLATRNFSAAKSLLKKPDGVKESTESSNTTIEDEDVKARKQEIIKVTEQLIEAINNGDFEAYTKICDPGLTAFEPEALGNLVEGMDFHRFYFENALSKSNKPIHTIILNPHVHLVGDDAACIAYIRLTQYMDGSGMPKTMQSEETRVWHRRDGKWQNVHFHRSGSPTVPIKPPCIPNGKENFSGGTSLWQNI
Assay [6] concerns the target Glycogen synthase kinase-3 beta (Homo sapiens, UniProt P49841).
For assay [7], the target named is T2, Calcium/calmodulin-dependent protein kinase type IV (Homo sapiens) (UniProt Q16566).
T2 sequence (whole entry): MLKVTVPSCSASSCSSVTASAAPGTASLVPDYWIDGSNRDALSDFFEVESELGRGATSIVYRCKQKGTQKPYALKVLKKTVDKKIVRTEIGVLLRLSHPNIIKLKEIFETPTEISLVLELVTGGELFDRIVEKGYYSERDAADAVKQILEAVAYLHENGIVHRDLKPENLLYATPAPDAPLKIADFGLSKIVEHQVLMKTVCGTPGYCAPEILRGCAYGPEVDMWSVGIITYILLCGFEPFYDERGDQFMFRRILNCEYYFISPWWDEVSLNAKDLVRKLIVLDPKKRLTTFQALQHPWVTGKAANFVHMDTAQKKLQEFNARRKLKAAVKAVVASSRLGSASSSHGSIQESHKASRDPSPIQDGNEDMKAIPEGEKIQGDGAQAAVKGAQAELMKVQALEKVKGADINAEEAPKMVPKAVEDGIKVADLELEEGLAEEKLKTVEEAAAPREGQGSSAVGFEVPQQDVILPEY

Assay [8] concerns the target Mitogen-activated protein kinase 6 (Homo sapiens) (UniProt Q16659).
Assay [9] concerns the target Calcium/calmodulin-dependent protein kinase type 1G (Homo sapiens) (UniProt Q96NX5).
The target of assay [10] is TRAF2 and NCK-interacting protein kinase (Homo sapiens) (UniProt Q9UKE5).
Chain of TRAF2 and NCK-interacting protein kinase (Homo sapiens) (Q9UKE5 whole entry, looked up, canonical isoform): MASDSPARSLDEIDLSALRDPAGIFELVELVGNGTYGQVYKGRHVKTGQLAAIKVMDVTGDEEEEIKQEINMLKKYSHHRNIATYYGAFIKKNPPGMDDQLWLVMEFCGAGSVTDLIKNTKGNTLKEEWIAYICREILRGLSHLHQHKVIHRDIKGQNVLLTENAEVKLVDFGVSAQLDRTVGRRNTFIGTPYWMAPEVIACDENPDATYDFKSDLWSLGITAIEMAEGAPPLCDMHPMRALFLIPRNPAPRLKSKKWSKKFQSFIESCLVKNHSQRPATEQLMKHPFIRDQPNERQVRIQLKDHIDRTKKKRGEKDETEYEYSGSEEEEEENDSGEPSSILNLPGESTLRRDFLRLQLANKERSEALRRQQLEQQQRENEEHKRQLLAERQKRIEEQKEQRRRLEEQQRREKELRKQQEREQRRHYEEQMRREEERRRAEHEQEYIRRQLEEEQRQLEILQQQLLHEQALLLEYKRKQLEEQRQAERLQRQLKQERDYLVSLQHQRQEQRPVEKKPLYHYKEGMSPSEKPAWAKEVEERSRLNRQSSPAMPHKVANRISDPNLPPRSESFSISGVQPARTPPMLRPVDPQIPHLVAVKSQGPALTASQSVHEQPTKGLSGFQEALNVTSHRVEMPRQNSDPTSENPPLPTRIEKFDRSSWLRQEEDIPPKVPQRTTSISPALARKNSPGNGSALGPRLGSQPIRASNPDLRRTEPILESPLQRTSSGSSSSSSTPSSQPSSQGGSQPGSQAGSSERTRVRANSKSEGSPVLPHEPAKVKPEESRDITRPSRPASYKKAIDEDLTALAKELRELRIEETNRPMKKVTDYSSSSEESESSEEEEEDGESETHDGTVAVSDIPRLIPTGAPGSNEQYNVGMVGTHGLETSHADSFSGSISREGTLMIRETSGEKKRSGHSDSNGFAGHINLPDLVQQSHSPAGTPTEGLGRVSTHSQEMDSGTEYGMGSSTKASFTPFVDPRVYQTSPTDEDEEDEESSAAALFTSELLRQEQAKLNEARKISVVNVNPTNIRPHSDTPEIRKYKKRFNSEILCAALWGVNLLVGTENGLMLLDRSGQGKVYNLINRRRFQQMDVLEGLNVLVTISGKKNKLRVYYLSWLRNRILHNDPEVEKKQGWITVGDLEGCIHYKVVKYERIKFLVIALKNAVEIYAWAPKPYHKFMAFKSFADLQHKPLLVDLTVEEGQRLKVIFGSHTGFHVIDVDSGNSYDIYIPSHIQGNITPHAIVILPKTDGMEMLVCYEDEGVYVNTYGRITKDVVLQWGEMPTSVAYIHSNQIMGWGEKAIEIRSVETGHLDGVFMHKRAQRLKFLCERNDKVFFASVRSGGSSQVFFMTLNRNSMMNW
Assay [11] concerns the target Casein kinase I isoform gamma-2 (Homo sapiens) (UniProt P78368).
Assay [12] concerns the target Dual specificity protein kinase CLK3 (Homo sapiens) (UniProt P49761).
For assay [13], the target named is Ribosomal protein S6 kinase alpha-3 (Homo sapiens) (UniProt P51812).
Assay [14] addresses 5'-AMP-activated protein kinase catalytic subunit alpha-2 (Homo sapiens) (UniProt P54646).
The target in assay [15] is Dual specificity mitogen-activated protein kinase kinase 2 (Homo sapiens, UniProt P36507).
Chain of Dual specificity mitogen-activated protein kinase kinase 2 (P36507 whole entry): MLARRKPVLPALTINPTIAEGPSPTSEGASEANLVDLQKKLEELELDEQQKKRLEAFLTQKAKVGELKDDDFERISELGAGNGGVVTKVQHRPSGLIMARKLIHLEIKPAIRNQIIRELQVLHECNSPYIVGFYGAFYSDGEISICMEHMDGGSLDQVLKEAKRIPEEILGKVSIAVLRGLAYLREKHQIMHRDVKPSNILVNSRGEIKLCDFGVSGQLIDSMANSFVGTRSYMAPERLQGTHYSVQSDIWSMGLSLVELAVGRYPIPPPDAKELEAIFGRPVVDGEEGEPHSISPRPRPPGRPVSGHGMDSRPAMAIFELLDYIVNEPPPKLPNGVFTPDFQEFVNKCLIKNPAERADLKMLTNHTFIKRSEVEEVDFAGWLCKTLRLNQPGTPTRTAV
The target of assay [16] is Serine/threonine-protein kinase pim-2 (Homo sapiens, UniProt Q9P1W9).
In assay [17] the target is T3, Serine/threonine-protein kinase PLK4 (Homo sapiens) (UniProt O00444).
T3 sequence (whole entry): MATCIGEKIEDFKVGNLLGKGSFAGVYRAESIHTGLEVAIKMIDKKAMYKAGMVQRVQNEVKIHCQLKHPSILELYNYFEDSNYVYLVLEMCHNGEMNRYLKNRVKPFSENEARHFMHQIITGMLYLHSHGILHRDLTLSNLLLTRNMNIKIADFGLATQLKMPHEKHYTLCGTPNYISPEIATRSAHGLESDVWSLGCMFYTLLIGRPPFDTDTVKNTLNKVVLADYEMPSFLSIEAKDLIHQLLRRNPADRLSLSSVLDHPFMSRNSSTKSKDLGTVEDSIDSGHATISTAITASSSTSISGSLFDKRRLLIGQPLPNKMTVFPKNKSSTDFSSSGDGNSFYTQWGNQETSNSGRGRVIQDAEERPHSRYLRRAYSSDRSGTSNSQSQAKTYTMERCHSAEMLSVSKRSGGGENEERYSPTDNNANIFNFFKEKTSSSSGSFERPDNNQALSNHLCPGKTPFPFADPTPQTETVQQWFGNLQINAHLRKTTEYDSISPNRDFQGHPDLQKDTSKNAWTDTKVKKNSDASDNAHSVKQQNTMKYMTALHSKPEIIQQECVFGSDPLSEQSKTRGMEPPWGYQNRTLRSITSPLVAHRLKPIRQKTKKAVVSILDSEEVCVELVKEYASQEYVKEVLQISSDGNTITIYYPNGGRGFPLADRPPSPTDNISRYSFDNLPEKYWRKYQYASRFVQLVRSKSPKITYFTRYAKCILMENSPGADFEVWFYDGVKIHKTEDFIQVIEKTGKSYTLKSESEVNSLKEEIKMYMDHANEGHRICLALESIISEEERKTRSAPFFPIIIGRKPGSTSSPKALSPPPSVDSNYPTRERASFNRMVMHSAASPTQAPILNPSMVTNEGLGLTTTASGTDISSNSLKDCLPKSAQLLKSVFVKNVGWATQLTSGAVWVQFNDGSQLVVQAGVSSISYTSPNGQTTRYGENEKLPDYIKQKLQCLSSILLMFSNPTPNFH

In assay [18] the target is Serine/threonine-protein kinase 25 (Homo sapiens) (UniProt O00506).
Assay [19] addresses Casein kinase I isoform gamma-3 (Homo sapiens) (UniProt Q9Y6M4).
Assay [20] addresses Calcium/calmodulin-dependent protein kinase type II subunit gamma (Homo sapiens) (UniProt Q13555).

Structures are written as SMILES.

Chain of Calcium/calmodulin-dependent protein kinase type II subunit gamma (Homo sapiens) (Q13555 whole entry): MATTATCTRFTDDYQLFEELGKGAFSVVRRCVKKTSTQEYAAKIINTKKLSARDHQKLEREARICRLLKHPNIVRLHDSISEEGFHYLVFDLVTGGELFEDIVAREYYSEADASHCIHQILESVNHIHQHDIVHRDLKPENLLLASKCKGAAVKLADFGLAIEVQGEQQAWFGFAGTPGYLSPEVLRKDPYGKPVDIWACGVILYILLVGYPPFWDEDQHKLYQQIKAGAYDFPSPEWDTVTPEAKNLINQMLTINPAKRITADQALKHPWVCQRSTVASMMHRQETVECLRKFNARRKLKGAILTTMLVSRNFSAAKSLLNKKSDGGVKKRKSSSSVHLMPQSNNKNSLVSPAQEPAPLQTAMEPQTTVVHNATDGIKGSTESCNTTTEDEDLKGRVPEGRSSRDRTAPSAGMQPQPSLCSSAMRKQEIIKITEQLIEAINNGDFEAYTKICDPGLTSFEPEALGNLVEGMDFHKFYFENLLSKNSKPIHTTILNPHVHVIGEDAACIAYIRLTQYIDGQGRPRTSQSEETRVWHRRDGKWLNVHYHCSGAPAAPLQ
Chain of Calcium/calmodulin-dependent protein kinase type 1G (Homo sapiens) (Q96NX5 whole entry): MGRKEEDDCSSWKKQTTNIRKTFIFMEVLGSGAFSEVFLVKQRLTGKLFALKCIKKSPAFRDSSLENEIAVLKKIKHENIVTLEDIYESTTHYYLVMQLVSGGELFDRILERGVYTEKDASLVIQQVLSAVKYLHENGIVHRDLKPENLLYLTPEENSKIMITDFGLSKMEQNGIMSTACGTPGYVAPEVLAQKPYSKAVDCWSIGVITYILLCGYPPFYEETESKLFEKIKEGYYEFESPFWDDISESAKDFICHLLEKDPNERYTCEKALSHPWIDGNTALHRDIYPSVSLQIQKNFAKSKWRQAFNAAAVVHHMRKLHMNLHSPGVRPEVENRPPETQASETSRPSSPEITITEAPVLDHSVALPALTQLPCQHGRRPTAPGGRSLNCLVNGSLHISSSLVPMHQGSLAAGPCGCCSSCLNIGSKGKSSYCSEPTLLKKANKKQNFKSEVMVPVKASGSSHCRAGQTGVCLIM
Chain of 5'-AMP-activated protein kinase catalytic subunit alpha-2 (Homo sapiens) (P54646 whole entry, looked up): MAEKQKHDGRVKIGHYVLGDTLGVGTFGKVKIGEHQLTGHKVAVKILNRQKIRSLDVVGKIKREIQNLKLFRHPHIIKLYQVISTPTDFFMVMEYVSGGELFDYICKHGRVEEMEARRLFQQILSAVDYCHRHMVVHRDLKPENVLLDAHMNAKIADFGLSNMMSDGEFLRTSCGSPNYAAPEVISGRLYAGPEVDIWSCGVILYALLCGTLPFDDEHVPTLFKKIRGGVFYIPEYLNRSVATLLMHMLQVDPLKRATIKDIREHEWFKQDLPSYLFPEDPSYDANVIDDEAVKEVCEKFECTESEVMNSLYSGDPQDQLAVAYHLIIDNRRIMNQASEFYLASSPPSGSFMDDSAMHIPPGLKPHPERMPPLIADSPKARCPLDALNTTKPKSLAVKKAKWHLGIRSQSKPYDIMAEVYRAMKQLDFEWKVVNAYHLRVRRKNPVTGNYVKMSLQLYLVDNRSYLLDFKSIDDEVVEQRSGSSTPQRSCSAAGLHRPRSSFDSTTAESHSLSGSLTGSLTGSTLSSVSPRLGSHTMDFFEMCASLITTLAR
Chain of Tyrosine-protein kinase JAK1 (Homo sapiens) (P23458 whole entry, canonical isoform): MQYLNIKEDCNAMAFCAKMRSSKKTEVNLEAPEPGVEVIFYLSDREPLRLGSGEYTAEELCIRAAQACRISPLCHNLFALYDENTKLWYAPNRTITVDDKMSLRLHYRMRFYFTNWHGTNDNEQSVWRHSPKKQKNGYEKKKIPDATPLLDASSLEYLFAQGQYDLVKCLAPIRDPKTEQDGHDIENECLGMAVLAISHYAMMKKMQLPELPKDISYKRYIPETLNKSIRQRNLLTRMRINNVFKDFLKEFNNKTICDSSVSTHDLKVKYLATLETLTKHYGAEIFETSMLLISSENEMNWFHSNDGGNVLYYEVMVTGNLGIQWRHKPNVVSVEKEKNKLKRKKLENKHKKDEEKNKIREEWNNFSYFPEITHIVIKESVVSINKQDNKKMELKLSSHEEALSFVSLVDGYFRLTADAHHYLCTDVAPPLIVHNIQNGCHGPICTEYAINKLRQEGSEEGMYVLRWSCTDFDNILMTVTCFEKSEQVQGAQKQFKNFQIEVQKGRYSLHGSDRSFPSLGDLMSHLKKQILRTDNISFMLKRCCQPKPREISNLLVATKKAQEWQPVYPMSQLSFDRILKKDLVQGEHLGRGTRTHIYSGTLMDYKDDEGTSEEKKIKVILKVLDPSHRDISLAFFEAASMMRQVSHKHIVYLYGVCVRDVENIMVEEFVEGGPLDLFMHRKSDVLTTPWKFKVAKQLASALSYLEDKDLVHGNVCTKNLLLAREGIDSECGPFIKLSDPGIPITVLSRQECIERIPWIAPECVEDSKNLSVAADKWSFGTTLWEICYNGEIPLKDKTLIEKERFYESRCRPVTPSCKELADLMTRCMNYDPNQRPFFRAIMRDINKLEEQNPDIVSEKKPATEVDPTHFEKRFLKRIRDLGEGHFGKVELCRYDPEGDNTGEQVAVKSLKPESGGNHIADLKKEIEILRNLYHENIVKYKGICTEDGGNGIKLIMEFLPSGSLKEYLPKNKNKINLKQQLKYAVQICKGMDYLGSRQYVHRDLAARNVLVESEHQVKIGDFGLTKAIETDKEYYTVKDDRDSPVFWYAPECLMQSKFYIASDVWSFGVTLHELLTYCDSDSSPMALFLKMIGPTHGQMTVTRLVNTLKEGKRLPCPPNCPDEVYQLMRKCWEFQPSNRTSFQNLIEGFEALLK

Usually ΔTm stands for the shift of the melting midpoint relative to a reference. Turning to `Cn1cc(C2=C(c3cn(CCCN)c4ccccc34)C(=O)NC2=O)c2ccccc21`, the ΔTm was 0.9 °C in assay [1]; -0.1 °C in assay [2]; -0.5 °C in assay [3]; 0.5 °C in assay [4]; -0.5 °C in [5]; 11.9 °C in [6]. For the same compound, the ΔTm in assay [7] stood at 1.7 °C; in assay [8] it was 0.3 °C; in assay [9], 0.3 °C; in assay [10], 0.8 °C; in assay [11], 0.3 °C; in assay [12] it was 3.5 °C. The ΔTm in assay [13] came to 8.1 °C; in assay [14], 1.4 °C; in assay [15], 0.6 °C; in assay [16], 5.6 °C; in [17], 1.8 °C; in assay [18], 2.3 °C. Moreover, the thermal shift (ΔTm) in assay [19] stood at 0.4 °C; in assay [20], 3.7 °C.
For the compound `N#C/C(=C\c1ccc(O)c(O)c1)C(=O)NCc1ccccc1`, the shift in melting temperature (ΔTm) in assay [1] is 0.4 °C; in assay [2], 0.2 °C; in [3] it was 1.3 °C; in assay [4], 0.4 °C; in assay [5], 0.3 °C; in assay [6], 2.6 °C. Also, the ΔTm in [7] was found to be 0.6 °C; in assay [8], 0.4 °C; in assay [9], 0.1 °C; in assay [10], 0.8 °C; in [11], 0.7 °C; in assay [12], 0.5 °C. In addition, the shift in melting temperature (ΔTm) is 0.6 °C in [13]; -0.2 °C in [14]; 0.2 °C in [15]; 1.9 °C in assay [16]; 0.9 °C in assay [17]; -0.4 °C in assay [18]. In addition, the ΔTm in assay [19] was 0.5 °C; in assay [20], -0.2 °C.
In the case of `COC1=C2C[C@@H](C)C[C@H](OC)[C@H](O)[C@@H](C)/C=C(\C)[C@H](OC(N)=O)[C@@H](OC)/C=C\C=C(/C)C(=O)NC(=CC1=O)C2=O`, the ΔTm is -0.1 °C in [1]; -0.6 °C in [2]; -0.5 °C in [3]; 0.5 °C in assay [4]; -0.5 °C in assay [5]; 0.5 °C in [6]. Further, the ΔTm was 0 °C in assay [7]; 0.1 °C in [8]; 0.2 °C in [9]; -0.4 °C in assay [10]; 0.4 °C in assay [11]; -0.1 °C in assay [12]. The ΔTm in assay [13] is 0.2 °C; in assay [14], 0.4 °C; in assay [15], -0.5 °C; in [16], -0.1 °C; in assay [17] it was 0.2 °C; in assay [18], -0.6 °C. The ΔTm in assay [19] was found to be 0.4 °C; in assay [20], 0.1 °C.
With `O=S(=O)(NCCNC/C=C/c1ccc(Br)cc1)c1cccc2cnccc12`, the thermal shift (ΔTm) was -0.3 °C in [1]; -0.1 °C in assay [2]; -0.3 °C in [3]; 0.6 °C in [4]; -0.2 °C in [5]; -0.6 °C in assay [6]. Also, the shift in melting temperature (ΔTm) amounted to 0.4 °C in [7]; 0.4 °C in assay [8]; 0 °C in assay [9]; 0 °C in assay [10]; 0.1 °C in [11]; 1 °C in assay [12]. Also, the ΔTm was 2.2 °C in assay [13]; 0.9 °C in assay [14]; 0 °C in assay [15]; -0.3 °C in assay [16]; 1.1 °C in [17]; 1 °C in assay [18]. The ΔTm in [19] came to 0.1 °C; in assay [20], 0 °C.
As to `COC(=O)[C@]1(O)C[C@@H]2O[C@@]1(C)n1c3ccccc3c3c4c(c5c6ccccc6n2c5c31)C(=O)NC4` (single isomer, unassigned), the ΔTm in assay [1] was determined as 0.2 °C; in assay [2], 4.2 °C; in assay [3], 0.8 °C; in [4] it was 0.6 °C; in [5] it was 3.5 °C; in [6] it was 4.5 °C. Further, the ΔTm is 1.8 °C in [7]; 0.3 °C in assay [8]; 2.2 °C in [9]; 8.7 °C in assay [10]; 0.1 °C in assay [11]; 0.6 °C in assay [12]. Also, the ΔTm in assay [13] came out at 7.3 °C; in assay [14], 7.6 °C; in assay [16] it was 3.8 °C; in [17], 12.5 °C; in [18], 4.4 °C; in assay [19] it was 0.2 °C. Further, the ΔTm in assay [20] was 6.5 °C.
For the compound `CN[C@@H]1CC2O[C@@](C)([C@@H]1OC)n1c3ccccc3c3c4c(c5c6ccccc6n2c5c31)C(=O)NC4`, the ΔTm in assay [1] amounted to 2.2 °C; in [2], 18.6 °C; in [3], 1.9 °C; in assay [4] it was 1.9 °C; in assay [5] it was 17.1 °C; in assay [8], 1 °C. The ΔTm in [10] amounted to 9.4 °C; in assay [12] it was 4.2 °C; in assay [13], 12.3 °C; in assay [14] it was 16.7 °C; in assay [17], 21.2 °C; in [18], 9.6 °C. Also, the thermal shift (ΔTm) came out at 1.9 °C in [19] and 14.6 °C in assay [20].
For the compound `Nc1nc(Nc2ccc(S(N)(=O)=O)cc2)nn1C(=S)Nc1c(F)cccc1F`, the ΔTm was 1.9 °C in assay [1]; 8.6 °C in [2]; 10.4 °C in assay [3]; 0.7 °C in assay [5]; 8 °C in assay [6]; -0.2 °C in [7]. Further, the shift in melting temperature (ΔTm) in [8] came out at 2.1 °C; in [9], 2 °C; in [10], 9.9 °C; in [11] it was 4.9 °C; in assay [12], 14.7 °C; in assay [13], 9.6 °C. The ΔTm stood at 10.1 °C in [14]; 5.1 °C in assay [15]; 0.6 °C in assay [16]; 13.1 °C in [17]; 12 °C in assay [18]; 5.3 °C in assay [19]. For the same compound, the ΔTm in assay [20] stood at 4.2 °C.
